A value given as a limit tells only on which side of the number the result lay.

The target in this experiment is T1, ALDH1A3 (Homo sapiens, UniProt P47895).
T1 sequence (P47895 1-512): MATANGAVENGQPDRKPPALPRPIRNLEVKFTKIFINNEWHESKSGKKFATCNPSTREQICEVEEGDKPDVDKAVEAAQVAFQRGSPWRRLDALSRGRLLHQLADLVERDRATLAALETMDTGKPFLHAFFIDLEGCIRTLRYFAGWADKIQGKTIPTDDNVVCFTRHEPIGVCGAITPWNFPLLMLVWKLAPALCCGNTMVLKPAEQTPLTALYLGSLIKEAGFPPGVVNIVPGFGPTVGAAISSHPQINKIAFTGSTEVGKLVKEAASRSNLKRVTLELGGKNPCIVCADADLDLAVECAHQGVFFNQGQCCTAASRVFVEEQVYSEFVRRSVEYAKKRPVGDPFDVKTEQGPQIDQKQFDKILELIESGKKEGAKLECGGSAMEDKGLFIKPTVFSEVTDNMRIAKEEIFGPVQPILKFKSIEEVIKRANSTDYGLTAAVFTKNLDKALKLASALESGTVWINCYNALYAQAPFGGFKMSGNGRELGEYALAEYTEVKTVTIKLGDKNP
Put plainly: Primary biochemical assay, NAD(P)H-Glo Detection System. More on the design: His-tag; made in house; host or cells: E. coli Rosetta (DE3). To be noted: 30 min pre-incubation, propionaldehyde and NAD at Km. From the text: Cloning: Open reading frames corresponding to the protein coding sequences of full length human ALDH1A1 (Uniprot ID P00352), ALDH1A2 (094788) and ALDH1A3 (P47895) were polymerase chain reaction (PCR) amplified from human cDNA and inserted into the multi-cloning sites of the commercially available (Novagen) E. coli expression vectors pET47b (ALDH1A1, EcoRI restriction site; ALDH1A2, BamHI and EcoRI sites) or pET28a (ALDH1A3, NdeI and BamHI sites), using standard molecular genetic techniques. Recombinant DNA products were sequence verified prior to use in expression studies.
Expression: Expression constructs were transformed into the E. coli strain Rosetta (DE3) (Merck) and individual colonies used to inoculate 10 mL lysogen broth (LB) medium supplemented with kanamycin and chloramphenicol at 50 μg/mL and 34 μg/mL, respectively. Cultures were grown to saturation overnight at 37° C., prior to being used to sub-inoculate fresh 1 L LB medium cultures (plus antibiotics, as before). 1 L cultures were grown at 37° C., 200 rpm, throughout the day until the optical density at 600 nm (OD600) reached ˜0.8, at which point growth temperature was reduced to 18° C. and 1 mM isopropyl β-d-1-thiogalacto pyranoside (IPTG) added to induce protein expression.
Cultures were left overnight (at least 16 h) under these conditions and the following day harvested by centrifugation (4000 G, 10 minutes). Culture supernatant was discarded and cell pellets stored at −80° C. until further processing.
Purification: Cell pellets were thawed on ice, re-suspended in Ni Affinity Buffer A (20 mM HEPES pH 7.5, 300 mM NaCl, 20 mM imidazole, 1 mM tris(2-carboxyethyl)phosphine (TCEP)) with protease inhibitors (cOmplete Ultra protease inhibitor, Roche), and lysed by sonication. Lysates were clarified by centrifugation at 18,000 G, 4° C., for 40 minutes, and loaded directly onto a pre-equilibrated (Buffer A) 5 mL HisTrap Fast Flow column (GE Healthcare) by way of an AKTA Fast Protein Liquid Chromatography (FPLC) system. The column was sequentially treated with 6 column volumes (CV) 100% Buffer A, 8 CV of 90% Buffer A:10% Buffer B (20 mM 4-(2-hydroxyethyl)-1-piperazineethanesulfonic acid (HEPES) pH 7.5, 300 mM NaCl, 500 mM imidazole, 1 mM TCEP) and finally a linear gradient from 10-70% Buffer B over 8 CV to elute recombinant His-tagged protein. Relevant fractions (as measured by 280 nm absorbance) collected during elution were pooled and subjected to further purification by size exclusion chromatography (Superdex 200 26/600, GE Healthcare, running buffer 20 mM 2-(carbamoylmethylamino)ethanesulfonic acid (ACES) pH 7.5, 1 mM TCEP). Relevant fractions from this step were pooled, aliquoted, and stored at −80° C. until required for compound profiling assays.
Materials: ALDH2 was purchased from Abnova. Tris(hydroxymethyl)aminomethane (Tris) was purchased from MP Biomedicals. TCEP, ethylenediaminetetraacetic acid (EDTA), propionaldehyde, DMSO and Tween-20 were purchased from Sigma. Nicotinamide adenine dinucleotide (NAD) was obtained from Abcam. The NAD(P)H-Glo™ Detection System was purchased from Promega. White, non-binding surface, 384 well plates were supplied by Corning (#3574).
Method: Inhibition of ALDH1A3 was assessed using the NAD(P)H-Glo™ Detection System (Cat. No. G9062) from Promega. This assay detects the production of NADH from NAD by ALDH1A3 via the coupled enzymatic conversion of a proluciferin reductase substrate to generate a luminescent signal. Inhibition of ALDH1A3 by small molecule inhibitors will result in reduction or abrogation of luminescence signal increase above background. Inhibition of ALDH1A1, ALDH1A2 and ALDH2 (selectivity assays) were assessed using the same assay.
Compounds were dosed into Corning 384 well assay plates using an Echo acoustic dispenser to give 10 point curves in a 3-fold dilution series. Compounds were dispensed from a 20 mM DMSO stock and initially screened at a top concentration of 20 μM (ALDH1A3) or 250 μM (ALDH1A1, ALDH1A2 & ALDH2). […]
The term IC50 denotes the midpoint of a concentration-inhibition curve. In the case of `O=C1CCc2cc(OCCN3CC(O)CC3c3cccc(F)c3)ccc2N1` (mixture of isomers) [ALDHI-2035, 6-[2-[2-(3-fluorophenyl)-4-hydroxy-pyrrolidin-1-yl]ethoxy]-3,4-dihydro-1H-quinolin-2-one], the IC50 was < 0.1 µM. The value for `CC1CN(CCOc2ccc3c(c2)CCC(=O)N3)C(c2ccccc2)CO1` (mixture of isomers) [ALDHI-2042, 6-[2-(2-methyl-5-phenyl-morpholin-4-yl)ethoxy]-3,4-dihydro-1H-quinolin-2-one] was 0.1 to 1 µM; that for `O=C1CCc2cc(NC(=O)c3sc(N4CCOCC4)nc3-c3cccc(F)c3)ccc2N1` [ALDHI-1001, 4-(3-fluorophenyl)-2-morpholino-N-(2-oxo-3,4-dihydro-1H-quinolin-6-yl)thiazole-5-carboxamide] was < 0.1 µM; that for `CN(C)c1nc(-c2cccc(F)c2)c(C(=O)Nc2ccc3c(c2)CCC(=O)N3)s1` [ALDHI-1002, 2-(dimethylamino)-4-(3-fluorophenyl)-N-(2-oxo-3,4-dihydro-1H-quinolin-6-yl)thiazole-5-carboxamide] was < 0.1 µM. The value for `O=C1CCc2cc(NC(=O)c3scnc3-c3cccc(F)c3)ccc2N1` [ALDHI-1003, 4-(3-fluorophenyl)-N-(2-oxo-3,4-dihydro-1H-quinolin-6-yl)thiazole-5-carboxamide] was < 0.1 µM; that for `O=C1CCc2cc(NC(=O)c3sc(N4CC(O)C4)nc3-c3cccc(F)c3)ccc2N1` [ALDHI-1004, 4-(3-fluorophenyl)-2-(3-hydroxyazetidin-1-yl)-N-(2-oxo-3,4-dihydro-1H-quinolin-6-yl)thiazole-5-carboxamide] was < 0.1 µM. As for `O=C1CCc2cc(NC(=O)c3sc(N4CCNCC4)nc3-c3cccc(F)c3)ccc2N1` [ALDHI-1005, 4-(3-fluorophenyl)-N-(2-oxo-3,4-dihydro-1H-quinolin-6-yl)-2-piperazin-1-yl-thiazole-5-carboxamide], the IC50 is < 0.1 µM. With `O=C1CCc2cc(NC(=O)c3c[nH]nc3-c3cccc(F)c3)ccc2N1` [ALDHI-1006, 3-(3-fluorophenyl)-N-(2-oxo-1,2,3,4-tetrahydroquinolin-6-yl)-1H-pyrazole-4-carboxamide], the IC50 fell in the range of 0.1 to 1 µM.

In turn, `O=C1CCc2cc(NC(=O)c3ccccc3-c3cccc(F)c3)ccc2N1` [ALDHI-1007, 3′-fluoro-N-(2-oxo-1,2,3,4-tetrahydroquinolin-6-yl)-[1,1′-biphenyl]-2-carboxamide] displayed an IC50 of 1 to 10 µM. The value for `Cc1noc(-c2ccccc2C(=O)Nc2ccc3c(c2)CCC(=O)N3)n1` [ALDHI-1008, 2-(3-methyl-1,2,4-oxadiazol-5-yl)-N-(2-oxo-1,2,3,4-tetrahydroquinolin-6-yl)benzamide] was 0.1 to 1 µM; that for `O=C1CCc2cc(NC(=O)c3ncsc3-c3cccnc3)ccc2N1` [ALDHI-1010, N-(2-oxo-3,4-dihydro-1H-quinolin-6-yl)-5-(3-pyridyl)thiazole-4-carboxamide] was 1 to 10 µM.

As to `O=C1CCc2cc(NC(=O)c3ncsc3-c3ccsc3)ccc2N1` [ALDHI-1011, N-(2-oxo-3,4-dihydro-1H-quinolin-6-yl)-5-(3-thienyl)thiazole-4-carboxamide], the IC50 was 0.1 to 1 µM.

Molecule `O=C1CCc2cc(NC(=O)c3scnc3-c3ccccc3Cl)ccc2N1` [ALDHI-1012, 4-(2-chlorophenyl)-N-(2-oxo-3,4-dihydro-1H-quinolin-6-yl)thiazole-5-carboxamide] had a half-maximal inhibitory concentration (IC50) of 1 to 10 µM. The value for `Cc1cccc(-c2ncsc2C(=O)Nc2ccc3c(c2)CCC(=O)N3)c1` [ALDHI-1013, 4-(m-tolyl)-N-(2-oxo-3,4-dihydro-1H-quinolin-6-yl)thiazole-5-carboxamide] was 1 to 10 µM; that for `O=C1CCc2cc(NC(=O)c3ncsc3-c3cccc(F)c3)ccc2N1` [ALDHI-1014, 5-(3-fluorophenyl)-N-(2-oxo-3,4-dihydro-1H-quinolin-6-yl)thiazole-4-carboxamide] was 0.1 to 1 µM.

In the case of `O=C1COc2cc(NC(=O)c3scnc3-c3cccc(F)c3)ccc2N1` [ALDHI-1016, 4-(3-fluorophenyl)-N-(3-oxo-4H-1,4-benzoxazin-7-yl)thiazole-5-carboxamide], the IC50 lay within 0.1 to 1 µM.

Take `O=C1CCc2cc(NC(=O)c3scnc3-c3ccc(F)cc3)ccc2N1` [ALDHI-1017, 4-(4-fluorophenyl)-N-(2-oxo-1,2,3,4-tetrahydroquinolin-6-yl)thiazole-5-carboxamide]: the IC50 was < 0.1 µM.

In turn, `O=C1CCc2cc(NC(=O)c3cncnc3-c3cccc(F)c3)ccc2N1` [ALDHI-1018, 4-(3-fluorophenyl)-N-(2-oxo-3,4-dihydro-1H-quinolin-6-yl)pyrimidine-5-carboxamide] yielded an IC50 of 0.1 to 1 µM.

Consider `O=C1CCc2cc(NC(=O)c3ocnc3-c3cccc(F)c3)ccc2N1` [ALDHI-1019, 4-(3-fluorophenyl)-N-(2-oxo-3,4-dihydro-1H-quinolin-6-yl)oxazole-5-carboxamide], for which the IC50 was in the range of 0.1 to 1 µM. The value for `O=C1CCc2cc(NC(=O)c3scnc3-c3ccccc3F)ccc2N1` [ALDHI-1021, 4-(2-fluorophenyl)-N-(2-oxo-3,4-dihydro-1H-quinolin-6-yl)thiazole-5-carboxamide] was < 0.1 µM. The value for `O=C1CCc2cc(NC(=O)c3sccc3-c3cccc(F)c3)ccc2N1` [ALDHI-1022, 3-(3-fluorophenyl)-N-(2-oxo-3,4-dihydro-1H-quinolin-6-yl)thiophene-2-carboxamide] was 0.1 to 1 µM; that for `O=C1CCc2cc(NC(=O)c3scnc3-c3cccs3)ccc2N1` [ALDHI-1023, N-(2-oxo-3,4-dihydro-1H-quinolin-6-yl)-4-(2-thienyl)thiazole-5-carboxamide] was < 0.1 µM; that for `O=C1CCc2cc(OCCN3CCCC3c3cccc(F)c3)ccc2N1` (centres unmarked) [ALDHI-2001, 6-[2-[2-(3-fluorophenyl)pyrrolidin-1-yl]ethoxy]-3,4-dihydro-1H-quinolin-2-one] was < 0.1 µM. The value for `O=C1CCc2cc(OCCN3CCCC3c3ccccc3F)ccc2N1` (centres unmarked) [ALDHI-2002, 6-[2-[2-(2-fluorophenyl)pyrrolidin-1-yl]ethoxy]-3,4-dihydro-1H-quinolin-2-one] was < 0.1 µM; that for `O=C1CCc2cc(OCCN3CCCC3c3ccc(F)cc3)ccc2N1` (centres unmarked) [ALDHI-2003, 6-[2-[2-(4-fluorophenyl)pyrrolidin-1-yl]ethoxy]-3,4-dihydro-1H-quinolin-2-one] was < 0.1 µM. On to `O=C1CCc2cc(OCCN3CCCC3c3ccncc3)ccc2N1` (centres unmarked) [ALDHI-2004, 6-[2-[2-(4-pyridyl)pyrrolidin-1-yl]ethoxy]-3,4-dihydro-1H-quinolin-2-one], for which the IC50 was in the range of 0.1 to 1 µM.

Values taken from patent publication US20240174634A1, “Aldehyde Dehydrogenase Inhibitors and Their Therapeutic Use” (priority 2020, published 2024).
